Results taken from US20250195513A1, “DEGRADATION OF IRAK4 BY CONJUGATION OF IRAK4 INHIBITORS WITH E3 LIGASE LIGAND AND METHODS OF USE” (BeiGene, Ltd., priority 2022, published 2025).

Key:
Type in all cases: cell-based
IRAK4 [1] = biological target: T1, IRAK4 (Homo sapiens, UniProt Q9NWZ3); experiment: IRAK4 Degradation Assay (Karpas299, HTRF/TR-FRET); settings: Karpas-299 cells; for Dmax: maximum percentage of degradation
T1 construct: endogenous in cells; host or cells: Karpas299
T1 sequence (Q9NWZ3 1-460): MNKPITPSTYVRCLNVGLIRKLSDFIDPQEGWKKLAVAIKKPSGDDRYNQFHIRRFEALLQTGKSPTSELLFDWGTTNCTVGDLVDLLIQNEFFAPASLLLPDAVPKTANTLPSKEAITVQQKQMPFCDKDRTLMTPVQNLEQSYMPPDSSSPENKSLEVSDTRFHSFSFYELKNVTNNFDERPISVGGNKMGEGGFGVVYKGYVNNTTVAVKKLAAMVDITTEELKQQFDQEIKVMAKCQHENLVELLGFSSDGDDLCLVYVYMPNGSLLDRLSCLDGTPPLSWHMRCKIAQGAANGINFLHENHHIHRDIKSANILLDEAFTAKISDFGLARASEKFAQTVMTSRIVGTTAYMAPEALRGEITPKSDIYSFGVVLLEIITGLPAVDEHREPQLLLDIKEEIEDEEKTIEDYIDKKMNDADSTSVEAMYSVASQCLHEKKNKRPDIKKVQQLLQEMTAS
Outline: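 Karpas299 cells at 0.2 million per well were exposed to serially diluted compounds for 24 h or 5 h, then lysed. IRAK4 remaining in lysates was quantified by HTRF (665/620 nm) after overnight antibody incubation at room temperature. Percent degradation was fitted to a four-parameter curve to give IC50 (DC50).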

IRAK4 [2] = biological target: T1, IRAK4; experiment: IRAK4 Degradation Assay with Human Serum (Karpas299, HTRF/TR-FRET); settings: Karpas-299 in human serum, 24 hrs treatment; for DC50: read-out: IRAK4 degradtion with human serum assay DC50; for Dmax: read-out: IRAK4 degradtion with human serum assay Dmax (%)
Outline: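 Karpas299 cells in human AB serum (0.2 million/well) treated with serial compound dilutions for 24 h. After lysis, IRAK4 quantified by HTRF (overnight antibody incubation at room temperature, 665/620 nm read). Degradation percentage fitted to four-parameter curve to give DC50.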

[3] = tested on: TNF-α production in THP-1 cells; experiment: TNF-α Production Assay in THP-1 Cells (LPS stimulated); settings: Homo sapiens, THP-1, 24 h; for Emax: maximum inhibition, read-out: TNF-α (THP-1) 24 h IMax
Procedure: THP-1 cells maintained in RPMI 1640 medium (Thermo Scientific) supplemented with 10% FBS (Thermo Scientific), 100 units/mL penicillin and 0.1 mg/mL streptomycin (Thermo Scientific) were seeded into 96-well plates at the density of 0.2 million cells per well and then treated with compounds for 24 h. Lipopolysaccharide was subsequently added at the final concentration of 1 μg/mL for 24 h. Culture supernatant was collected for measurement of TNF-α concentration by a TR-FRET-based method (Degorce, François, et al. Current chemical genomics. 2009, 3: 22) as described by the manufacturer manual (Cisbio). FRET signals were measured using a PHERAstar FSX reader (BMG Labtech).

[4] = 24 h treatment, read-out: IRAK4 in Karpas-299 (24 h) Dmax (%)
[5] = 24 h treatment, read-out: IRAK4 in Karpas-299 (24 h) DC50
[6] = 5 h treatment, read-out: IRAK4 in Karpas-299 (5 h) Dmax (%)
[7] = 5 h treatment, read-out: IRAK4 in Karpas-299 (5 h) DC50

Dmax (IRAK4 [1]; [4]) [%] | DC50 (IRAK4 [1]; [5]) [nM] | DC50 (IRAK4 [2]) [nM] | Dmax (IRAK4 [2]) [%] | IC50 [3] [nM] | Dmax (IRAK4 [1]; [6]) [%] | DC50 (IRAK4 [1]; [7]) [nM] | SMILES | Emax [3] [%]
100 | 0.7 | 3.2 | 102 | 42 | – | – | C[C@@H]1CN(C2CCN(c3cc(F)c([C@H]4CCC(=O)NC4=O)c(F)c3)CC2)CCN1[C@H]1CC[C@H](n2cc3cc(NC(=O)c4ccc5cc(C#N)cnn45)c(C(C)(C)O)cc3n2)CC1 [Example 301, 3-cyano-N-(2-((1R,4r)-4-((R)-4-(1-(4-((R)-2,6-dioxopiperidin-3-yl)-3,5-difluorophenyl)piperidin-4-yl)-2-methylpiperazin-1-yl)cyclohexyl)-6-(2-hydroxypropan-2-yl)-2H-indazol-5-yl)pyrrolo[1,2-b]pyridazine-7-carboxamide] | 96
98 | 0.8 | 8.8 | 96 | 38 | – | – | C[C@@H]1CN(C2CN(c3cc(F)c([C@H]4CCC(=O)NC4=O)c(F)c3)C2)CCN1[C@H]1CC[C@H](n2cc3cc(NC(=O)c4ccc5cc(C#N)cnn45)c(C(C)(C)O)cc3n2)CC1 [Example 302, 3-cyano-N-(2-((1R,4r)-4-((R)-4-(1-(4-((R)-2,6-dioxopiperidin-3-yl)-3,5-difluorophenyl)azetidin-3-yl)-2-methylpiperazin-1-yl)cyclohexyl)-6-(2-hydroxypropan-2-yl)-2H-indazol-5-yl)pyrrolo[1,2-b]pyridazine-7-carboxamide] | 84
96 | 0.5 | 65 | 97 | 31 | – | – | C[C@H]1CN(C(=O)C2CN(c3cc(F)c([C@H]4CCC(=O)NC4=O)c(F)c3)C2)CCN1[C@H]1CC[C@H](n2cc3cc(NC(=O)c4ccc5cc(C#N)cnn45)c(C(C)(C)O)cc3n2)CC1 [Example 304, 3-cyano-N-(2-((1S,4r)-4-((S)-4-(1-(4-((R)-2,6-dioxopiperidin-3-yl)-3,5-difluorophenyl)azetidine-3-carbonyl)-2-methylpiperazin-1-yl)cyclohexyl)-6-(2-hydroxypropan-2-yl)-2H-indazol-5-yl)pyrrolo[1,2-b]pyridazine-7-carboxamide] | 88
97 | 0.4 | 14 | 100 | 31 | – | – | C[C@@H]1CN([C@H]2CC[C@H](n3cc4cc(NC(=O)c5ccc6cc(C#N)cnn56)c(C(C)(C)O)cc4n3)CC2)CCN1C(=O)C1CN(c2cc(F)c([C@H]3CCC(=O)NC3=O)c(F)c2)C1 [Example 309, 3-cyano-N-(2-((1R,4r)-4-((R)-4-(1-(4-((R)-2,6-dioxopiperidin-3-yl)-3,5-difluorophenyl)azetidine-3-carbonyl)-3-methylpiperazin-1-yl)cyclohexyl)-6-(2-hydroxypropan-2-yl)-2H-indazol-5-yl)pyrrolo[1,2-b]pyridazine-7-carboxamide] | 90
98 | 0.8 | 15 | 99 | 29 | – | – | C[C@H]1CN([C@H]2CC[C@H](n3cc4cc(NC(=O)c5ccc6cc(C#N)cnn56)c(C(C)(C)O)cc4n3)CC2)CCN1C(=O)C1CN(c2cc(F)c([C@H]3CCC(=O)NC3=O)c(F)c2)C1 [Example 311, 3-cyano-N-(2-((1S,4r)-4-((S)-4-(1-(4-((R)-2,6-dioxopiperidin-3-yl)-3,5-difluorophenyl)azetidine-3-carbonyl)-3-methylpiperazin-1-yl)cyclohexyl)-6-(2-hydroxypropan-2-yl)-2H-indazol-5-yl)pyrrolo[1,2-b]pyridazine-7-carboxamide] | 91
95 | 0.6 | 18 | 99 | 22 | 97 | 0.9 | COC[C@H]1CN([C@H]2CC[C@H](n3cc4cc(NC(=O)c5ccc6cc(C#N)cnn56)c(C(C)(C)O)cc4n3)CC2)CCN1C(=O)C1CN(c2cc(F)c(N3CCC(=O)NC3=O)c(F)c2)C1 [Example 315, 3-cyano-N-(2-((1R,4r)-4-((R)-4-(1-(4-(2,4-dioxotetrahydropyrimidin-1(2H)-yl)-3,5-difluorophenyl)azetidine-3-carbonyl)-3-(methoxymethyl)piperazin-1-yl)cyclohexyl)-6-(2-hydroxypropan-2-yl)-2H-indazol-5-yl)pyrrolo[1,2-b]pyridazine-7-carboxamide] | 93
98 | 2 | 6.7 | 98 | 39 | 95 | 1.2 | COC[C@@H]1CN([C@H]2CC[C@H](n3cc4cc(NC(=O)c5ccc6cc(C#N)cnn56)c(C(C)(C)O)cc4n3)CC2)CCN1C1CCN(c2cc(F)c([C@H]3CCC(=O)NC3=O)c(F)c2)CC1 [Example 319] | 90
96 | 0.6 | 10 | 98 | 19 | – | – | CC(C)(O)c1cc2nn([C@H]3C[C@H](N4CCN(C5CCN(c6cc(F)c([C@H]7CCC(=O)NC7=O)c(F)c6)CC5)CC4)C3)cc2cc1NC(=O)c1ccc2cc(C#N)cnn12 [Example 330, 3-cyano-N-(2-((1R,3r)-3-(4-(1-(4-((R)-2,6-dioxopiperidin-3-yl)-3,5-difluorophenyl)piperidin-4-yl)piperazin-1-yl)cyclobutyl)-6-(2-hydroxypropan-2-yl)-2H-indazol-5-yl)pyrrolo[1,2-b]pyridazine-7-carboxamide] | 89
95 | 2.5 | 20 | 99 | 122 | – | – | CC(C)(O)c1cc2nn(C3CCN([C@H]4CCN(CCc5cc(F)c([C@H]6CCC(=O)NC6=O)c(F)c5)CC4(F)F)CC3)cc2cc1NC(=O)c1ccc2cc(C#N)cnn12 [Example 339, 3-cyano-N-(2-((S)-1′-(4-((R)-2,6-dioxopiperidin-3-yl)-3,5-difluorophenethyl)-3′,3′-difluoro-[1,4′-bipiperidin]-4-yl)-6-(2-hydroxypropan-2-yl)-2H-indazol-5-yl)pyrrolo[1,2-b]pyridazine-7-carboxamide] | 67
98 | 2.4 | 10 | 93 | 44 | – | – | CC(C)(O)c1cc2nn(C34CC(N5CCN(CC6CN(c7cc(F)c(N8CCC(=O)NC8=O)c(F)c7)C6)CC5)(C3)C4)cc2cc1NC(=O)c1ccc2cc(C#N)cnn12 [Example 354, 3-cyano-N-(2-(3-(4-((1-(4-(2,4-dioxotetrahydropyrimidin-1(2H)-yl)-3,5-difluorophenyl)azetidin-3-yl)methyl)piperazin-1-yl)bicyclo[1.1.1]pentan-1-yl)-6-(2-hydroxypropan-2-yl)-2H-indazol-5-yl)pyrrolo[1,2-b]pyridazine-7-carboxamide] | 96
98 | 1.3 | 14 | 102 | 12 | – | – | COc1cc(N2CC(C(=O)N3CCN([C@H]4CC[C@H](n5cc6cc(NC(=O)c7ccc8cc(C#N)cnn78)c7c(c6n5)OCO7)CC4)CC3)C2)ccc1[C@H]1CCC(=O)NC1=O [Example 356] | 90
99 | 0.5 | 5.4 | 96 | 17 | 95 | 1.9 | COC[C@@H]1CN([C@H]2CC[C@H](n3cc4cc(NC(=O)c5ccc6cc(C#N)cnn56)c(C(C)(C)O)cc4n3)CC2)CCN1CC1CN(c2cc(F)c([C@H]3CCC(=O)NC3=O)c(F)c2)C1 [Example 358, 3-cyano-N-(2-((1S,4r)-4-((S)-4-((1-(4-((R)-2,6-dioxopiperidin-3-yl)-3,5-difluorophenyl)azetidin-3-yl)methyl)-3-(methoxymethyl)piperazin-1-yl)cyclohexyl)-6-(2-hydroxypropan-2-yl)-2H-indazol-5-yl)pyrrolo[1,2-b]pyridazine-7-carboxamide] | 96
